Like-named read-outs stand apart in the source and are kept apart here.
Experiments:
HIV (HTLV-IIIB strain) = experiment: MTT assay, MT-4 cells infected with HIV; format: cell-based; settings: 5 days, inhibits 50% of cell damage caused by virus
Procedure: The inhibitory effects of each anti-human immunodeficiency virus active substance against human immunodeficiency virus have been determined by MTT assay described below.
(1) Human T cell strain Molt-4 clone 8 persistently infected HIV (HTLV-IIIB strain) was cultivated in RPMI-1640 medium supplemented with 10% fatal bovine serum, and supernatant was filtered, measured RT activity, and stored at −80° C. On the other hand, each human anti-immunodeficiency virus active substance was diluted to fixed concentration in culture medium, they were plated to 96-well microtiter plate. Subsequently, 100 μL (3.5×10^4 cells) of MT-4 cell suspension was plated to 96-well microtiter plate, and then above mentioned supernatant containing HIV, which was diluted by culture medium, was added 50 μL (60 pfu (plaque forming unit.)) to 96-well microtiter plate.
(2) After cultivation at 37° C. for 5 days in CO2 incubator, into all well was added 30 μL per well 3-(4,5-[…])-2,5-diphenyltetrazolium bromide (MTT) 5 mg/mL) and PBS, and then incubated for 1 h.
In this time, alive cells reduced MTT and formazan was precipitated, therefore, 150 μL of cell supernatants were removed from all wells, and then 150 μL of lysate (10% triton X-100 and 0.4% (v/v) HCl-containing isopropanol) was added, and formazan was eluated on a plate shaker.

HIV-1 integrase = HIV-1 integrase (Human immunodeficiency virus type 1 group M subtype B, UniProt P12497); experiment: HIV-1 integrase inhibition assay (microtiter plate, substrate/target DNA)
Procedure: Substrate DNA and target DNA, which sequences were indicated below, were synthesized by Amersham Pharmacia Biotech and dissolved in KTE buffer (composition: 100 mM KCl, 1 mM EDTA, 10 mM Tris-HCl (pH 7.6)) at concentration of 2 pmol/μL and 5 pmol/μL, respectively. The DNA solutions were annealed with each complement by slowly cooling after heating.
(2) Calculations of the percent inhibitions (the IC50 values of test compounds)
Streptavidin, obtained from Vector Laboratories, was dissolved in 0.1 M carbonate buffer (composition: 90 mM Na2CO3, 10 mM NaHCO3) at concentration of 40 μg/mL. After coating each well of microtiter plates (obtained from NUNC) with 50 μL of the above solution at 4° C. over night, each well was washed twice with PBS (composition: 13.7 mM NaCl, 0.27 mM KCl, 0.43 mM Na2HPO4, 0.14 mM KH2PO4) and blocked with 300 μL of 1% skim milk in PBS for 30 min. Additionally, each well was washed twice with PBS and added 50 μL of substrate DNA solution (2 pmol/μL). The microtiter plates were kept at room temperature for 30 min. Then, each well was washed twice with PBS and once with H2O.
Subsequently, in the each well prepared above were added 45 μL of the reaction buffer prepared from 12 μL of the buffer (composition: 150 mM MOPS (pH 7.2), 75 mM MnCl2, 50 mM 2-mercaptoethanol, 25% glycerol, 500 μg/mL bovine serum albumin-fraction V), 1 μL of target DNA (5 pmol/μL), and 32 μL of the distilled water. Additionally, 6 μL of either a test compound in DMSO or DMSO for positive control(PC) was mixed with the above reaction buffer, then 9 μL of an integrase solution (30 pmol) was added and mixed well. In the well of negative control (NC) was added 9 μL of the integrase dilution buffer (composition: 20 mM MOPS (pH7.2), 400 mM potassium glutamate, 1 mM EDTA, 0.1% NP-40, 20% glycerol, 1 mM DTT, 4M urea).
The microtiter plates were incubated at 30° C. for 1 hour. The reaction solution was removed and each well was washed twice with PBS. Subsequently, each well of the microtiter plates was filled with 100 μL of anti-digoxigenin antibody labeled with alkaline phosphatase (Sheep Fab fragment: obtained from Boehringer) and incubated at 30° C. for 1 hour. Then, each well was washed twice with 0.05% Tween20 in PBS and once with PBS. Next, 150 μL of the Alkaline phosphatase reaction buffer (composition: 10 mM p-Nitrophenylphosphate (obtained from Vector Laboratories), 5 mM MgCl2, 100 mM NaCl, 100 mM Tris-HCl (pH 9.5))was added in each well. […] The optical density (OD) at 405 nm of each well was measured and the percent inhibition was determined by the following expression.
The percent inhibition (%)=100[1-{(C abs.−NC abs.)/(PC abs.−NC abs.)}]
C abs.; the OD of the well of the compounds
NC abs.: the OD of the negative control (NC)
PC abs.: the OD of the positive control (PC)
IC50(μg/mL)=x-{(X-50)(x-y)/(X-Y)}

[1] = Human immunodeficiency virus 1, MT4, 120 h, read-out: EC50

Row | Molecule | EC50 (HIV (HTLV-IIIB strain); [1]) [µg/mL] | melting point [°C] | IC50 (HIV-1 integrase) [nM] | EC50 (HIV (HTLV-IIIB strain)) [µg/mL]
1 | CC(C)(C)NC(=O)[C@@H]1C[C@@H]2CCCC[C@@H]2CN1C[C@@H](O)[C@H](Cc1ccccc1)NC(=O)[C@H](CC(N)=O)NC(=O)c1ccc2ccccc2n1 [Saquinavir, N-tert-butyl-decahydro-2-[2(R)-hydroxy-4-phenyl-3(S)-{[N-(2-quinolylcarbony)-L-asparginyl]amino}butyl]-(4aS,8aS)-isoquinoline-3(S)-carboxamide] | 0.0037 |  |  | 
2 | O=C(C=C(O)c1nc[nH]n1)c1cc(C(=O)O)n(Cc2ccccc2)c1 [Compound I-29, 1-[(1-Benzyl-5-carboxy)pyrrol-3-yl]-3-hydroxy-3-(1H-1,2,4-triazol-3-yl)propenone] |  | 264 to 265 | 2960 | 
3 | O=C(C=C(O)c1nn[nH]n1)c1c[nH]cc1CCc1ccccc1 [Compound I-22, 3-Hydroxy-1-[(4-(2-phenylethyl))pyrrol-3-yl]-3-(2H-tetrazol-5-yl)propenone] |  | 228 to 230 | 1910 | 
4 | (±)-α-[(2-acetyl-5-methylphenyl)amino]-2,6-dichlorobenzeneacetomide [Loviride] |  |  |  | 0.011
5 | CCOCn1c(Cc2ccccc2)c(C(C)C)c(=O)[nH]c1=O [Emivirine, 6-benzyl-1-(ethoxymethyl)-5-isopropyluracil] | 0.0045 |  |  | 
6 | O=C(C=C(O)c1nn[nH]n1)c1ccoc1Cc1ccc(F)cc1 [Compound I-20, 1-[2-(4-Fluorobenzyl)furan-3-yl]-3-hydroxy-3-(2H-tetrazol-5-yl)propenone] |  | 150 to 153 | 1020 | 
7 | O=C(C=C(O)c1ccccn1)c1ccc(Cc2ccc(F)cc2)o1 [Compound I-46, 1-[5-(4-Fluorobenzyl)furan-2-yl]-3-hydroxy-3-(pyridin-2-yl)propenone] |  | 84 to 85 | 1360 | 
8 | O=C(C=C(O)c1ncccn1)c1cnc(Cc2ccc(F)cc2)o1 [Compound I-51, 1-[2-(4-Fluorobenzyl)oxazol-5-yl]-3-hydroxy-3-(pyrimidin-2-yl)propenone] |  | 97 to 100 | 1480 | 
9 | Nc1nc(NC2CC2)c2ncn([C@H]3C=C[C@@H](CO)C3)c2n1 [Abacavir] | 0.63 |  |  | 
10 | CC(C)Nc1cccnc1N1CCN(C(=O)c2cc3cc(NS(C)(=O)=O)ccc3[nH]2)CC1 [Delavirdine, 1-[5-methanesulfonamideindolyl-2-carbonyl]-4-[3-(1-methylethylamino)-2-pyridyl]piperadine] | 0.012 |  |  | 
11 | O=C(C=C(O)c1nc[nH]n1)c1ccoc1Cc1ccc(F)cc1 [Compound I-25, 1-[2-(4-Fluorobenzyl)furan-3-yl]-3-hydroxy-3-(1H-1,2,4-triazol-3-yl)propenone] |  | 144 to 147 | 1530 | 
12 | O=c1[nH]cnc2c1ncn2C1CCC(CO)O1 (stereo not shown) [Didanosine, 2′,3′-dideoxyinosine] | 0.64 |  |  | 
13 | O=C(C=C(O)c1ncccn1)c1ccc(Cc2ccc(F)cc2)o1 [Compound I-47, 1-[5-(4-Fluorobenzyl)furan-2-yl]-3-hydroxy-3-(pyrimidin-2-yl)propenone] |  |  | 1080 | 
14 | O=C1Nc2ccc(Cl)cc2C(C#CC2CC2)(C(F)(F)F)O1 [Efavirenz, (S)-(−)-6-chloro-4-(chloropropylethynyl)-1,4-dihydro-4-(trifluoromethyl)-2H-3,1-benzoxazin-2-one] | 0.00058 |  |  | 
15 | CC(C)c1nc(CN(C)C(=O)N[C@H](C(=O)N[C@@H](Cc2ccccc2)C[C@H](O)[C@H](Cc2ccccc2)NC(=O)OCc2cncs2)C(C)C)cs1 (relative stereo) [Ritonavir, [5S-(5R*,8R*,10R*,11R*)]-10-hydroxy-2-methyl-5-(1-methylethyl)-1-[2-(1-methylethyl)-4-thiazolyl]-3,6-dioxo-8,10-bis(phenylmethyl)-2,4,7,12-tetraazatridecane-13-hydroxy acid 5-thiazolylmethyl ester] | 0.026 |  |  | 
16 | Nc1ccn([C@H]2CC[C@@H](CO)O2)c(=O)n1 [Zalcitabine, 2′,3′-dideoxycytidine] | 0.017 |  |  | 
17 | CCCn1cc(Cc2ccc(F)cc2)c(C(=O)C=C(O)c2nc[nH]n2)c1 [Compound I-17, 1-[[4-(4-Fluorobenzyl)-1-propyl]pyrrol-3-yl]-3-hydroxy-3-(1H-1,2,4-triazol-3-yl)propenone] |  | 210 to 211 | 4510 | 
18 | O=C(C=C(O)c1nn[nH]n1)c1ccc(Cc2ccc(F)cc2)o1 [Compound I-3, 1-[5-(4-Fluorobenzyl)furan-2-yl]-3-hydroxy-3-(2H-tetrazol-5-yl)propenone] |  | 121 to 123 | 1270 | 
19 | CC(C)(C)NC(=O)[C@@H]1CN(Cc2cccnc2)CCN1CC(O)C[C@@H](Cc1ccccc1)C(=O)N[C@H]1c2ccccc2C[C@H]1O (stereo partly drawn) [Indinavir, [1(1S,2R),5(s)]-2,3,5-trideoxy-N-(2,3-dihydro-2-hydroxy-1H-inden-1-yl)-5-[2-{[(1,1-dimethylethyl)amino]carbonyl}-4-(3-pyridinylmethyl)-1-piperadinyl]-2-(phenylmethyl)-D-erythro-pentonamide] | 0.014 |  |  | 
20 | 5-[(:3,5-dichlorophenyl)thio]-4-(1-methylethyl)-1-(4-pyridynylmethyl)-1H-imidazole-2-methanol carbamate [Capravirine] |  |  |  | 0.0014
21 | Cc1ccnc2c1NC(=O)c1cccnc1N2C1CC1 [Nevirapine] | 0.02 |  |  | 
22 | O=C(C=C(O)c1ccccn1)c1cnc(Cc2ccc(F)cc2)o1 [Compound I-50, 1-[2-(4-Fluorobenzyl)oxazol-5-yl]-3-hydroxy-3-(pyridin-2-yl)propenone] |  | 108 to 109 | 1230 | 
23 | O=C(C=C(O)c1nc[nH]n1)c1occc1Cc1ccc(F)cc1 [Compound I-12, 1-[3-(4-Fluorobenzyl)furan-2-yl]-3-hydroxy-3-(1H-1,2,4-triazol-3-yl)propenone] |  | 221 to 223 | 1370 | 
24 | O=C(C=C(O)c1nn[nH]n1)c1cn(S(=O)(=O)c2ccccc2)cc1CCc1ccccc1 [Compound I-21, 1-[[1-Benzenesulfonyl-4-(2-phenylethyl)]pyrrol-3-yl]-3-hydroxy-3-(2H-tetrazol-5-yl)propenone] |  | 178 to 181 | 1200 | 
25 | Cc1c(O)cccc1C(=O)N[C@@H](CSc1ccccc1)[C@H](O)CN1C[C@H]2CCCC[C@H]2C[C@H]1C(=O)NC(C)(C)C (relative stereo) [Nelfinavir, [3S-[2(2S*,3S*),3α,4aβ,8aβ]]-N-(1,1-dimethylethyl)-decahydro-2-[2-hydroxy-3-[(3-hydroxy-2-methylbenzoyl)amino]-4-(phenylthio)butyl]-3-isoquinolinecarboxamide] | 0.01 |  |  | 
26 | O=C(C=C(O)c1nc[nH]n1)c1c[nH]cc1Cc1ccc(F)cc1 [Compound I-19, 1-[4-(4-fluorobenzyl)pyrrol-3-yl]-3-hydroxy-3-(1H-1,2,4-triazol-3-yl)propenone] |  | 210 to 213 | 2020 | 
27 | O=C(C=C(O)c1nn[nH]n1)c1occc1Cc1ccc(F)cc1 [Compound I-11, 1-[3-(4-Fluorobenzyl)furan-2-yl]-3-hydroxy-3-(2H-tetrazol-5-yl)propenone] |  | 171 to 174 | 1340 | 
